This passage reports normalised inhibition (eCFP-eYFP dual reporter) results from the OligoGym collection.

Oligonucleotides are written 5' to 3', each unit as a sugar letter and its base; * is a phosphorothioate linkage, no mark a phosphodiester; rarer units and linkages stand in square brackets, end groups in braces. Plain capitals give the bases only. d = 2'-deoxy (DNA); r = 2'-OH (RNA)
Note: test concentration or dose not given here.

The target of the first series is UBE2H. Nature of the series: reporter assay of Huesken 2005. To be noted: siRNA. Background: A reporter such as luciferase makes a cellular process visible.
Take “sense rCrArUrGrArArUrArArArArUrUrUrUrCrCrArUdTdT / antisense rArUrGrGrArArArArUrUrUrUrArUrUrCrArUrGdAdA”: the normalised inhibition (eCFP-eYFP dual reporter) is 64%.
Take “sense rGrArArUrArCrArArGrCrArGrArArArArUrUrAdTdT / antisense rUrArArUrUrUrUrCrUrGrCrUrUrGrUrArUrUrCdTdT”: the normalised inhibition (eCFP-eYFP dual reporter) turned out to be 93.1%.
In the case of “sense rArGrGrUrUrArCrGrArUrCrCrUrGrGrGrArGrGdTdT / antisense rCrCrUrCrCrCrArGrGrArUrCrGrUrArArCrCrUdCdA”, the normalised inhibition (eCFP-eYFP dual reporter) stood at 84.1%.
For “sense rGrArGrGrUrUrArCrGrArUrCrCrUrGrGrGrArGdTdT / antisense rCrUrCrCrCrArGrGrArUrCrGrUrArArCrCrUrCdAdT”, the normalised inhibition (eCFP-eYFP dual reporter) was 57.3%.
Consider “sense rArGrUrGrArArGrUrUrUrUrArUrGrGrArCrCrAdTdT / antisense rUrGrGrUrCrCrArUrArArArArCrUrUrCrArCrUdAdC”, for which the normalised inhibition (eCFP-eYFP dual reporter) was found to be 95.5%.
Take “sense rArUrUrUrGrArGrUrCrCrUrUrCrCrUrGrCrCrUdTdT / antisense rArGrGrCrArGrGrArArGrGrArCrUrCrArArArUdAdT”: the normalised inhibition (eCFP-eYFP dual reporter) was 48.2%.
Turning to “sense rCrGrArGrArGrUrArArArCrArUrGrArGrGrUrUdTdT / antisense rArArCrCrUrCrArUrGrUrUrUrArCrUrCrUrCrGdAdT”, the normalised inhibition (eCFP-eYFP dual reporter) is 98%.
Regarding “sense rGrGrGrUrArCrCrGrGrGrGrArCrArGrCrUrCrAdTdT / antisense rUrGrArGrCrUrGrUrCrCrCrCrGrGrUrArCrCrCdTdC”, the normalised inhibition (eCFP-eYFP dual reporter) worked out at 71.9%.
Take “sense rArCrGrCrCrArCrGrGrArGrGrArGrGrCrGrCrUdTdT / antisense rArGrCrGrCrCrUrCrCrUrCrCrGrUrGrGrCrGrUdAdT”: the normalised inhibition (eCFP-eYFP dual reporter) was 71.9%.
With “sense rCrCrArGrArArGrArArUrArCrArArGrCrArGrAdTdT / antisense rUrCrUrGrCrUrUrGrUrArUrUrCrUrUrCrUrGrGdTdC”, the normalised inhibition (eCFP-eYFP dual reporter) turned out to be 104%.
Regarding “sense rCrArUrCrGrArGrArGrUrArArArCrArUrGrArGdTdT / antisense rCrUrCrArUrGrUrUrUrArCrUrCrUrCrGrArUrGdAdG”, the normalised inhibition (eCFP-eYFP dual reporter) came out at 70.2%.
The same measure, in the same setting: then “sense rGrUrGrArArGrUrUrUrUrArUrGrGrArCrCrArCdTdT / antisense rGrUrGrGrUrCrCrArUrArArArArCrUrUrCrArCdTdA”, with 63.8%.
Regarding “sense rArArArArUrUrArArArGrArGrUrArCrArUrCrCdTdT / antisense rGrGrArUrGrUrArCrUrCrUrUrUrArArUrUrUrUdCdT”, the normalised inhibition (eCFP-eYFP dual reporter) turned out to be 70.5%.
With “sense rGrArUrArArArUrArCrCrCrUrUrUrCrArArArUdTdT / antisense rArUrUrUrGrArArArGrGrGrUrArUrUrUrArUrCdAdG”, the normalised inhibition (eCFP-eYFP dual reporter) was 102%.
Consider “sense rArUrGrArGrGrUrUrArCrGrArUrCrCrUrGrGrGdTdT / antisense rCrCrCrArGrGrArUrCrGrUrArArCrCrUrCrArUdGdT”, for which the normalised inhibition (eCFP-eYFP dual reporter) turned out to be 77.7%.
For the substance “sense rArArCrCrCrCrArUrArGrArUrCrCrUrCrUrCrAdTdT / antisense rUrGrArGrArGrGrArUrCrUrArUrGrGrGrGrUrUdAdG”, the normalised inhibition (eCFP-eYFP dual reporter) is 49.4%.
For “sense rCrCrArCrCrGrArCrCrArGrArArGrArArUrArCdTdT / antisense rGrUrArUrUrCrUrUrCrUrGrGrUrCrGrGrUrGrGdAdG”, the normalised inhibition (eCFP-eYFP dual reporter) was 82.5%.
Same read-out and setting: then “sense rArGrArGrGrGrUrArCrCrGrGrGrGrArCrArGrCdTdT / antisense rGrCrUrGrUrCrCrCrCrGrGrUrArCrCrCrUrCrUdTdC”, with 65%; and “sense rArUrUrGrGrCrCrUrArUrCrCrUrArArCrCrCrCdTdT / antisense rGrGrGrGrUrUrArGrGrArUrArGrGrCrCrArArUdAdA”, with 36.2%; and “sense rGrArArGrArArUrArCrArArGrCrArGrArArArAdTdT / antisense rUrUrUrUrCrUrGrCrUrUrGrUrArUrUrCrUrUrCdTdG”, with 95.1%.
As for “sense rCrArArGrGrArArCrArCrCrArUrArUrGrArArGdTdT / antisense rCrUrUrCrArUrArUrGrGrUrGrUrUrCrCrUrUrGdTdG”, the normalised inhibition (eCFP-eYFP dual reporter) was found to be 99.5%.
Still for that read-out and setting: for “sense rUrCrArUrCrGrArGrArGrUrArArArCrArUrGrAdTdT / antisense rUrCrArUrGrUrUrUrArCrUrCrUrCrGrArUrGrAdGdC” the value was 71.5%; for “sense rGrArGrUrArCrArUrCrCrArGrArArArUrArCrGdTdT / antisense rCrGrUrArUrUrUrCrUrGrGrArUrGrUrArCrUrCdTdT”, 77.6%; for “sense rCrArGrArArArArUrUrArArArGrArGrUrArCrAdTdT / antisense rUrGrUrArCrUrCrUrUrUrArArUrUrUrUrCrUrGdCdT”, 78.6%.
“sense rArUrCrUrArUrArGrGrArUrUrCrArUrGrArArUdTdT / antisense rArUrUrCrArUrGrArArUrCrCrUrArUrArGrArUdGdG”: the normalised inhibition (eCFP-eYFP dual reporter) worked out at 95.3%.
On to “sense rCrUrUrGrGrArCrArGrCrUrCrUrCrUrArUrGrAdTdT / antisense rUrCrArUrArGrArGrArGrCrUrGrUrCrCrArArGdTdT”, for which the normalised inhibition (eCFP-eYFP dual reporter) amounted to 81%.
With “sense rArArUrArUrArUrUrUrGrArGrUrCrCrUrUrCrCdTdT / antisense rGrGrArArGrGrArCrUrCrArArArUrArUrArUrUdGdG”, the normalised inhibition (eCFP-eYFP dual reporter) worked out at 41.6%.
Same read-out and setting: for “sense rArUrGrGrArCrCrArCrArArGrGrArArCrArCrCdTdT / antisense rGrGrUrGrUrUrCrCrUrUrGrUrGrGrUrCrCrArUdAdA” the value was 34%.
For “sense rArUrCrGrArGrArGrUrArArArCrArUrGrArGrGdTdT / antisense rCrCrUrCrArUrGrUrUrUrArCrUrCrUrCrGrArUdGdA”, the normalised inhibition (eCFP-eYFP dual reporter) came to 71.1%.
On to “sense rArCrArGrCrUrCrUrCrUrArUrGrArUrCrUrUrAdTdT / antisense rUrArArGrArUrCrArUrArGrArGrArGrCrUrGrUdCdC”, for which the normalised inhibition (eCFP-eYFP dual reporter) was 95.8%.
Same read-out and setting: then “sense rCrGrUrCrArGrGrArArCrUrGrUrGrUrGrUrCrUdTdT / antisense rArGrArCrArCrArCrArGrUrUrCrCrUrGrArCrGdCdT”, with 99.9%; and “sense rGrGrUrGrArCrGrCrUrGrCrArGrCrCrArUrGrUdTdT / antisense rArCrArUrGrGrCrUrGrCrArGrCrGrUrCrArCrCdAdT”, with 91%.

In the next series the target is UFC1. Kind of series: reporter assay of Huesken 2005. Conditions: siRNA.
For “sense rArGrGrArArGrGrArArCrUrCrGrGrUrGrGrUrUdTdT / antisense rArArCrCrArCrCrGrArGrUrUrCrCrUrUrCrCrUdTdG”, the normalised inhibition (eCFP-eYFP dual reporter) came out at 61.8%.
With “sense rArArArUrCrCrCrUrGrArUrCrUrGrArUrUrCrAdTdT / antisense rUrGrArArUrCrArGrArUrCrArGrGrGrArUrUrUdCdC”, the normalised inhibition (eCFP-eYFP dual reporter) came to 81%.
The same measure, in the same setting: for “sense rArArCrArArGrArArUrGrCrUrGrArCrArArCrGdTdT / antisense rCrGrUrUrGrUrCrArGrCrArUrUrCrUrUrGrUrUdGdT” the value was 43.3%.
As to “sense rUrUrGrGrArArArArUrGrCrUrGrGrUrArUrArUdTdT / antisense rArUrArUrArCrCrArGrCrArUrUrUrUrCrCrArAdAdC”, the normalised inhibition (eCFP-eYFP dual reporter) is 56.8%.
As for “sense rUrGrCrCrCrCrArGrArArArUrUrGrCrArGrUrUdTdT / antisense rArArCrUrGrCrArArUrUrUrCrUrGrGrGrGrCrAdGdT”, the normalised inhibition (eCFP-eYFP dual reporter) was 44.9%.
Turning to “sense rUrCrArGrUrCrCrCrUrUrArUrCrCrGrGrUrArUdTdT / antisense rArUrArCrCrGrGrArUrArArGrGrGrArCrUrGrAdTdA”, the normalised inhibition (eCFP-eYFP dual reporter) was determined as 88.9%.
With “sense rUrGrArCrArArCrGrArUrUrGrGrUrUrCrCrGrAdTdT / antisense rUrCrGrGrArArCrCrArArUrCrGrUrUrGrUrCrAdGdC”, the normalised inhibition (eCFP-eYFP dual reporter) is 76.1%.
The same measure, in the same setting: then “sense rGrCrArGrUrUrCrCrUrGrArGrCrUrGrGrArUrGdTdT / antisense rCrArUrCrCrArGrCrUrCrArGrGrArArCrUrGrCdAdA”, with 80.1%; and “sense rUrGrGrGrUrCrCrArUrGrGrCrUrGrGrCrArGrUdTdT / antisense rArCrUrGrCrCrArGrCrCrArUrGrGrArCrCrCrAdGdC”, with 35.2%.
Consider “sense rArGrUrCrCrCrUrUrArUrCrCrGrGrUrArUrGrUdTdT / antisense rArCrArUrArCrCrGrGrArUrArArGrGrGrArCrUdGdA”, for which the normalised inhibition (eCFP-eYFP dual reporter) is 74.6%.
Same read-out and setting: then “sense rArUrCrArCrArUrArUrCrCrUrArCrUrArCrUrGdTdT / antisense rCrArGrUrArGrUrArGrGrArUrArUrGrUrGrArUdAdG”, with 69.2%; and “sense rArGrCrGrArCrUrGrArArGrGrArGrGrArArUrAdTdT / antisense rUrArUrUrCrCrUrCrCrUrUrCrArGrUrCrGrCrUdGdC”, with 93.1%.
As for “sense rUrGrArArArUrArUrGrArGrUrUrUrGrArCrArUdTdT / antisense rArUrGrUrCrArArArCrUrCrArUrArUrUrUrCrAdGdG”, the normalised inhibition (eCFP-eYFP dual reporter) worked out at 75.3%.
Regarding “sense rCrArGrCrGrArCrUrGrArArGrGrArGrGrArArUdTdT / antisense rArUrUrCrCrUrCrCrUrUrCrArGrUrCrGrCrUrGdCdA”, the normalised inhibition (eCFP-eYFP dual reporter) was 100%.
As to “sense rArCrGrGrArUrCrArUrUrUrCrArArArCrCrUrUdTdT / antisense rArArGrGrUrUrUrGrArArArUrGrArUrCrCrGrUdCdA”, the normalised inhibition (eCFP-eYFP dual reporter) turned out to be 106%.
Consider “sense rGrArCrArGrCrArArArGrArUrGrUrArCrArGrGdTdT / antisense rCrCrUrGrUrArCrArUrCrUrUrUrGrCrUrGrUrCdTdT”, for which the normalised inhibition (eCFP-eYFP dual reporter) worked out at 50.1%.
For the substance “sense rArArGrGrArArCrUrCrGrGrUrGrGrUrUrUrGrGdTdT / antisense rCrCrArArArCrCrArCrCrGrArGrUrUrCrCrUrUdCdC”, the normalised inhibition (eCFP-eYFP dual reporter) came out at 32.2%.
